These results are taken from patent publication US20140377289A1, “Metallodrugs Having Improved Pharmacological Properties, and Methods of Manufacture and Use Thereof” (MetalloPharm, LLC, priority 2011, published 2014).

Data set [1] has as its system HCV RNA replicon in ET (luc-ubi-neo/ET) Huh7 cells. The following applies: read-out: antiviral IC50; 72 h, replicon-derived Luc activity. A general note: Replicon systems follow genome replication, usually without infectious particles.
A further data set is described as follows: in vitro. The conditions noted are these: human.
The test system of data set [2] is AP-RNA (aminopurine-labeled RRE RNA). Description: Reaction kinetics monitored by real-time fluorimetry, AP-RNA. The conditions noted are these: 100 nM complex, 100 nM AP-RNA, 1 mM H2O2, 1 mM ascorbate, 37° C.; initial rate. It counts as biochemical, HIV. Here is the method: Reaction Kinetics Monitored by Real-Time Fluorimetry. Reactions of 100 nM metal-chelate-Rev (1:1.2 M:chelate ratio), 1 mM H2O2, 1 mM ascorbate, and 100 nM AP-RNA were conducted at 37° C. in a fluorescence cuvette in a Varian Cary Eclipse fluorescence spectrophotometer. Reactions were monitored using excitation at 310 nm (SW=10 nm) and emission at 371 nm (SW=10 nm). Prior to reaction the AP-RNA was pre-heated to 90° C. for 5 min and then added to the pre-warmed 37° C. cuvette. The metal-chelate-Rev complexes were added after 5 min, and reactions were initiated by the addition of H2O2 and ascorbate after an additional 10 min. Each resulting fluorescence trace was fit to a first-order reaction equation using the software Origin, and observed rate constants and initial rates were determined; the magnitude of fluorescence change that corresponded to complete reaction was established by averaging the magnitudes of fluorescence change from many trials known to react to completion. All concentrations and buffer were identical to those used in the PAGE analysis assay with Fl-RNA. Control reactions with respective metal-chelates lacking the Rev domain were conducted in the same manner.

Another data set relates to pUC19 plasmid DNA. In words: DNA nicking and linearization nuclease assay. It counts as biochemical. The following applies: 10 μM base pairs pUC19, ascorbate/peroxide; for klin for DNA linearization, with attached Rev (M-chelate-REV) / knick for DNA nicking, with attached Rev (M-chelate-REV): 100 nM M-chelate-Rev.
The test system of data set [3] is 5′ fluorescein end-labeled RRE stem IIB RNA (Fl-RNA). Description: PAGE analysis of RRE RNA cleavage kinetics. It counts as biochemical, HIV. The following applies: 100 nM complex, 100 nM Fl-RNA, 1 mM H2O2, 1 mM ascorbate, 37° C.; initial rate. The procedure:
PAGE Analysis of RRE RNA Cleavage Kinetics. Reactions of 100 nM metal-chelate-Rev (1:1.2 M:chelate ratio), 1 mM H2O2, 1 mM ascorbate, and 100 nM 5′ fluorescein end-labeled RRE stem IIB RNA (Fl-RNA) were conducted at 37° C. in separate tubes, each containing 20 μL total reaction volume—one tube corresponding to one gel lane. A buffer consisting of 20 mM HEPES, 100 mM NaCl, pH 7.4 was used in all experiments. Fl-RNA was heated to 90° C. and allowed to cool to, but not below 37° C. prior to reaction, and the Fl-RNA was immediately added to each pre-incubated tube. Reactants were added to pre-incubated tubes at time-points corresponding to the beginning of each reaction, which were performed in a dark incubator. Reaction start times were staggered and all reactions were quenched at the same time by addition of a quenching/gel-loading buffer solution (80 μL/tube) consisting of standard 1× tris-EDTA-acetic acid buffer, 8M urea, 20 mM HEPES, 100 mM NaCl. The tubes were then heated to 90° C. for 5 min and a 5 μL aliquot from each tube was then loaded into its corresponding lane of a 10% polyacrylamide 8 M urea gel, resulting in […] Fl-RNA per lane. Gel electrophoresis was performed at 250 V for 1.5 h. Gels were analyzed on a GE Typhoon variable mode imager using 488 nm excitation and a 526 nm single pass emission filter. Bands were quantified with the program ImageQuant. Loss of initial Fl-RNA reactant bands were fit to a first-order reaction equation using the software Origin, and observed rate constants and initial rates were determined. Control reactions with respective metal-chelates lacking the Rev domain were conducted in the same manner.

The next data set has as its system HIV RRE RNA (AP-RRE RNA). It counts as binding. The conditions noted are these: for Kd: 37° C., pH 7.4. The procedure: Determination of Dissociation Constants. […] A 660 μL volume of 100 nM AP-RRE RNA was first heated to 90° C. for 5 min and then allowed to cool to, but not below, the titration temperature (37° C.). A 650 μL volume of this sample was added to the pre-thermostatted cuvette. After 10 min of temperature equilibration a solution of 5 μM M-chelate-Rev complex was titrated into the solution. After each addition, 100 μL of the solution was mixed by gentle pipeting to ensure complete mixing. The fluorescence change associated with the change of environment of the aminopurine label was monitored following peptide binding. Titration response curves were dilution and background corrected and normalized to initial intensity values. Curves were fit to a biphasic equation (4) for two independent binding sites where Fobs is the total observed fluorescence intensity, P0 is the total concentration of added M-chelate-Rev, F0, F1, and F2 are fitting parameters corresponding to the intensities of the unbound, singly-bound, and doubly-bound AP-RNA, respectively, R0 is the initial concentration of AP-RNA, and KD1 and KD2 are dissociation constants for binding at the high- and low-affinity sites, respectively. All binding experiments were performed in a binding buffer composed of 20 mM HEPES, 100 mM NaCl, pH 7.4.

Data set [4] deals with T1, Recombinant human somatic ACE (sACE-1) (Homo sapiens, UniProt P12821).
T1 construct: sACE-1: Leu30-Leu1261, with C-terminal His tag; His tag (C); purchased R&D Systems; host or cells: NS0-derived murine myeloma cell line
Description: Determination of IC50 values, sACE-1 fluorogenic substrate cleavage. It counts as biochemical. The conditions noted are these: 1 nM sACE-1, 20 min preincubation, 37° C., pH 7.4; read-out: IC50's.

Data set [5] has as its target T2, HCV protease (Hepatitis C virus genotype 1a, UniProt P27958). In words: biochemical. It counts as binding. The conditions noted are these: apparent binding affinity. The source says: (§1) This stems from the relationship between affinity and the on/off rate constants for binding (KA=kon/koff), where higher affinity binding is promoted by larger kon and/or smaller koff values. By contrast, efficient catalytic turnover requires koff values that are preferably no smaller than the rate constant for the inactivation chemistry (kcat), to ensure the availability of metallodrug catalyst for new target molecules, and will be best promoted by relatively high values for both kon and koff, which will result in weaker KA values.
(§2) Apparent binding affinities and rates of inactivation for HCV protease by several metallopeptide derivatives incorporating a Cu-GGH metal binding domain and C-terminal HCV protease targeting peptides were prepared and their affinity and reactivity were evaluated under in the presence of various redox reagents. Affinities lay within the range of 10^4M^−1 and 5×10^8 M^−1.

The target of data set [6] is T2, HCV protease. It counts as biochemical.
Source text: as §1, §2

Where [7] appears, read: high-affinity RRE RNA site, read-out: KD1.
Setting [8] is: low-affinity RRE RNA site, read-out: KD2.

Like-named read-outs stand apart in the source and are kept apart here. Where a SMILES comes first, the peptide text is derived from it.

T2 sequence (P27958 1027-1208, other chains not shown): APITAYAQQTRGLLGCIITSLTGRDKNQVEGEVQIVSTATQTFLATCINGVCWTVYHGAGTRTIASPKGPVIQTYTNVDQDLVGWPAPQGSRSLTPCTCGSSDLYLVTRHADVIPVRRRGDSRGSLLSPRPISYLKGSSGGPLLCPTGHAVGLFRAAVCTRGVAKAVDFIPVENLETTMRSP
T1 sequence (P12821 30-1261): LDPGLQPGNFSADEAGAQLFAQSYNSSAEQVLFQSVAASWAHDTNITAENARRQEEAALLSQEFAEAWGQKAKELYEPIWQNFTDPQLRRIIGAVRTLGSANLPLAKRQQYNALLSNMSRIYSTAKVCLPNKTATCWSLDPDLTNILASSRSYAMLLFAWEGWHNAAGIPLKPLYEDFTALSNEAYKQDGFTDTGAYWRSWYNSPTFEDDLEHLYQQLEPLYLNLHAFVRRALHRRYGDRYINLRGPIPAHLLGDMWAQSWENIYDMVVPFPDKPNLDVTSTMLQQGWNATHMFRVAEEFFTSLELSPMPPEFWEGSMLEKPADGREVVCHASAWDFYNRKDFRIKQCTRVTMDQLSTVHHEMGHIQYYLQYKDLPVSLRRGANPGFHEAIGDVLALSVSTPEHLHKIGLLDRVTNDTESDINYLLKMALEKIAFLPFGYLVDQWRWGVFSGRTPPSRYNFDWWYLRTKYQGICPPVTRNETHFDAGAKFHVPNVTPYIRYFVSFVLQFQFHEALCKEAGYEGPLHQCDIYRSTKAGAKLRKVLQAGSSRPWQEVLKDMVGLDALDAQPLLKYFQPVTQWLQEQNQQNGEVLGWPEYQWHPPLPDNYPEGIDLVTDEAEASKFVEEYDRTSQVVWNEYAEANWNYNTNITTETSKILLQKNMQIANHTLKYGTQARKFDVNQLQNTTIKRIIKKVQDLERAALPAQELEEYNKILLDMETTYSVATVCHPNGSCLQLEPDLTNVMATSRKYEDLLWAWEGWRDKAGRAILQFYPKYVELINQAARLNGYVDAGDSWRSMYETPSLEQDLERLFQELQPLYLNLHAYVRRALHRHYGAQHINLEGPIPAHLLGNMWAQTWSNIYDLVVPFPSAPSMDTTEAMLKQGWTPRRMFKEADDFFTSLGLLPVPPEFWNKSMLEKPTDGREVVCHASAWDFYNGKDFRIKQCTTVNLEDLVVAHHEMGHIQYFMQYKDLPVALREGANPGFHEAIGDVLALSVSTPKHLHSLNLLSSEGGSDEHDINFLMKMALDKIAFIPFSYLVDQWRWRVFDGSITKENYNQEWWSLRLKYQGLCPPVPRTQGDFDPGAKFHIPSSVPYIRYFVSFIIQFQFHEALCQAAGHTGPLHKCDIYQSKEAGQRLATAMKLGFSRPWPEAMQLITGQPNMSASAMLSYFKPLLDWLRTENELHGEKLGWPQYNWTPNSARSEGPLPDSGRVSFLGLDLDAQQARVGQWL

Consider `CC[C@H](C)[C@H](NC(=O)[C@H](CC(C)C)NC(=O)[C@H](CC(C)C)NC(=O)[C@H](CC(=O)O)NC(=O)[C@@H](NC(=O)[C@H](CCC(=O)O)NC(=O)[C@H](CCCCN)NC(=O)[C@H](Cc1ccc(O)cc1)NC(=O)[C@@H](N)CCCCN)[C@@H](C)O)C(=O)N[C@@H](CC(C)C)C(=O)N[C@@H](Cc1ccccc1)C(=O)N[C@@H](CCCCN)C(=O)N[C@@H](CC(=O)O)C(=O)N[C@@H](CC(=O)O)C(=O)N[C@@H](Cc1ccc(O)cc1)C(=O)N[C@@H](Cc1ccccc1)C(=O)N[C@@H](C)C(=O)N[C@@H](CCCCN)C(=O)N[C@@H](CCCCN)C(=O)N[C@@H](CC(N)=O)C(=O)N[C@@H](CCC(=O)O)C(=O)N[C@@H](CCC(=O)O)C(=O)N[C@@H](CCCNC(=N)N)C(=O)N[C@@H](CCCCN)C(N)=O` [reference compound] (H-KYKETDLLILFKDDYFAKKNEERK-NH2), for which the IC50 – broadly, the concentration needed to halve the response being measured – in data set [1] was over 100000 nM. The compound further returned a CC50 at 72 h in “in vitro” of over 100000 nM.
With “Cu complex of KGHK-Rev, KGHKTRQARRNRRRRWRERQR-NH2 [Cu-KGHK-Rev]”, the “AP-RNA Modification Rate” value in [2] amounted to 0.511 ± 0.003 nM/min. The “klin for DNA linearization, with attached Rev (M-chelate-REV)” value (from here on “klin … (M-chelate-REV)”) in the data set on pUC19 plasmid DNA is 0.0062 ± 0.0006 min⁻¹. In addition, the “knick for DNA nicking, with attached Rev (M-chelate-REV)” value (“knick for DNA nicking … (M-chelate-REV)” for short) in the data set on pUC19 plasmid DNA amounted to 0.17 ± 0.04 min⁻¹. Moreover, in data set [3], the “Fl-RNA Cleavage Rate” value turned out to be 0.060 ± 0.005 nM/min. Besides, in the data set on HIV RRE RNA (AP-RRE RNA) (high-affinity RRE RNA site), the KA1 was 7.7 10^8 M^−1. Also, the Kd turned out to be 1.3 ± 0.5 nM at HIV RRE RNA (AP-RRE RNA) (setting [7]) and 148 ± 5 nM on HIV RRE RNA (AP-RRE RNA) (setting [8]). Besides, the KA2 in the data set on HIV RRE RNA (AP-RRE RNA) (low-affinity RRE RNA site) is on record as 0.066 10^8 M^−1.
As for `CC[C@H](C)[C@H](NC(=O)[C@H](CCCCN)NC(=O)[C@H](C)NC(=O)[C@H](CCC(=O)O)NC(=O)[C@H](CC(C)C)NC(=O)[C@H](C)NC(=O)[C@H](C)N)C(=O)N[C@@H](CS)C(=O)N[C@@H](Cc1c[nH]cn1)C(=O)N[C@@H](CCC(N)=O)C(=O)N[C@H](C(=O)N[C@@H](CCC(=O)O)C(=O)N[C@@H](Cc1ccc(O)cc1)C(=O)N[C@@H](Cc1ccc(O)cc1)C(=O)N[C@@H](Cc1ccccc1)C(=O)NCC(=O)N[C@@H](CC(=O)O)C(=O)N[C@@H](Cc1ccccc1)C(N)=O)[C@@H](C)CC` [reference compound] (H-AALEAKICHQIEYYFGDF-NH2), the half-maximal inhibitory concentration (IC50) in data set [1] was over 100000 nM. In the data set “in vitro”, the CC50 at 72 h is over 100000 nM.
As to `O=C([O-])CN(CC(=O)[O-])CC(=O)O.[Cu+2]` [Cu-NTA], in the data set on pUC19 plasmid DNA (— = Below detection limit), the “klin for DNA linearization, without attached Rev (M-chelate)” value worked out at 0.0032 ± 0.0004 min⁻¹ and the “knick for DNA nicking, without attached Rev (M-chelate)” value was 0.148 ± 0.007 min⁻¹. The IC50 in [4] was 36000 nM.
Take `N=C(N)NCCC[C@@H](NC(=O)[C@@H](N)Cc1ccc(O)cc1)C(=O)N[C@@H](Cc1ccccc1)C(=O)N[C@@H](CCCCN)C(N)=O` [YrFK, reference compound]: in [1], the IC50 was over 100000 nM. Besides, the CC50 at 72 h in the data set “in vitro” is over 100000 nM.
In the case of Cu-GGHGDEMEEC, the KA at HCV protease [5] turned out to be 48000 M⁻¹. Moreover, the “rate constant for inactivation kinact (catalytic efficiency)” value at HCV protease [6] (in the presence of ascorbate/O2) was about 1.6 h⁻¹. Also, the kinact (as a rule, the rate constant of inactivation at saturating inhibitor) at HCV protease [6] (in the presence of various redox reagents) was 0.04 min⁻¹.
With “Cu complex of DOTA coupled to K-Rev, Ac-KTRQARRNRRRRWRERQR-NH2 [Cu-DOTA-Rev]”, the “AP-RNA Modification Rate” value in [2] was found to be 2.8 ± 0.1 nM/min. Besides, in the data set with pUC19 plasmid DNA, the “klin … (M-chelate-REV)” value turned out to be 0.0025 ± 0.0008 min⁻¹ and the “knick for DNA nicking … (M-chelate-REV)” value was 0.043 ± 0.007 min⁻¹. Besides, the “Fl-RNA Cleavage Rate” value in [3] was determined as 0.8 ± 0.1 nM/min. In addition, in the data set with HIV RRE RNA (AP-RRE RNA) (high-affinity RRE RNA site), the KA1 is on record as 25 10^8 M^−1. On HIV RRE RNA (AP-RRE RNA) (setting [7]), the Kd came out at 0.4 ± 0.1 nM. For the same compound, the KA2 with HIV RRE RNA (AP-RRE RNA) (low-affinity RRE RNA site) is given as 0.02 10^8 M^−1. Moreover, at HIV RRE RNA (AP-RRE RNA) (setting [8]), the Kd worked out at 488 ± 9 nM.
In the case of “Cu complex of GGH-Rev, GGHTRQARRNRRRRWRERQR-NH2 [Cu-GGH-Rev]”, the “AP-RNA Modification Rate” value in [2] amounted to 0.4 ± 0.3 nM/min. In the data set with pUC19 plasmid DNA, the “klin … (M-chelate-REV)” value is 0.0013 ± 0.0001 min⁻¹. In the data set with pUC19 plasmid DNA, the “knick for DNA nicking … (M-chelate-REV)” value was 0.069 ± 0.006 min⁻¹. The “Fl-RNA Cleavage Rate” value in data set [3] stood at 0.045 ± 0.005 nM/min. The KA1 in the data set with HIV RRE RNA (AP-RRE RNA) (high-affinity RRE RNA site) is listed as 25 10^8 M^−1. Besides, the figures for the Kd at HIV RRE RNA (AP-RRE RNA) (setting [7]) and on HIV RRE RNA (AP-RRE RNA) (setting [8]) were 4.6 ± 0.5 nM and 363 ± 9 nM, respectively. For the same compound, in the data set with HIV RRE RNA (AP-RRE RNA) (low-affinity RRE RNA site), the KA2 is recorded as 0.028 10^8 M^−1.
